The target in test [1] is Protein kinase C alpha type (Homo sapiens) (UniProt P17252). Put plainly: Inhibition of human truncated PKC alpha expressed in baculovirus assessed as substrate phosphorylation using fluorescence-labelled peptides as substrate at 8 uM after 90 mins by microfluidic peptide phosphorylation assay.
The target in test [2] is T1, Serine/threonine-protein kinase Sgk3 (Homo sapiens) (UniProt Q96BR1).
T1 sequence (whole entry): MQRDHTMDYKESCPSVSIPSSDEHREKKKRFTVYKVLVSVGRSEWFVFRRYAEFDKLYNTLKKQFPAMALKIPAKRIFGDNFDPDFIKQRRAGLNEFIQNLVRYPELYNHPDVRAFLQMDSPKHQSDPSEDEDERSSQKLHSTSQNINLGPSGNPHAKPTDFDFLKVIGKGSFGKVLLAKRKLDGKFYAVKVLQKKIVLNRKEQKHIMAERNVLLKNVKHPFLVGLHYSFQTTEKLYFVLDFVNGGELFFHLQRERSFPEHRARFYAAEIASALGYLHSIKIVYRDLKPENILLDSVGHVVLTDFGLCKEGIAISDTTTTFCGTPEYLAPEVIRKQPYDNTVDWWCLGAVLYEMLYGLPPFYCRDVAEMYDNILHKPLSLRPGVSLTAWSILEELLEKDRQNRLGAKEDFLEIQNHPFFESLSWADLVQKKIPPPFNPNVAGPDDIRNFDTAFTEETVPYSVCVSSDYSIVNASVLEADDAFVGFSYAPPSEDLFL
The experiment in a line: Inhibition of human full length SGK3 expressed in baculovirus assessed as substrate phosphorylation using fluorescence-labelled peptides as substrate at 8 uM after 90 mins by microfluidic peptide phosphorylation assay.

The target in test [3] is Serine/threonine-protein kinase MARK2 (Homo sapiens) (UniProt Q7KZI7). The experiment in a line: Inhibition of human full length MARK2 expressed in baculovirus assessed as substrate phosphorylation using fluorescence-labelled peptides as substrate at 0.1 uM after 90 mins by microfluidic peptide phosphorylation assay.
For test [4], the target named is Tyrosine-protein kinase HCK (Homo sapiens) (UniProt P08631). Put plainly: Inhibition of human HCK catalytic domain expressed in baculovirus assessed as substrate phosphorylation using fluorescence-labelled peptides as substrate at 9 uM after 90 mins by microfluidic peptide phosphorylation assay.
The target in test [5] is Ribosomal protein S6 kinase alpha-5 (Homo sapiens) (UniProt O75582). Put plainly: Inhibition of human full length MSK1 expressed in baculovirus assessed as substrate phosphorylation using fluorescence-labelled peptides as substrate at 70 uM after 90 mins by microfluidic peptide phosphorylation assay.
The target of test [6] is Serine/threonine-protein kinase pim-1 (Homo sapiens) (UniProt P11309). Put plainly: Inhibition of human full length PIM1 expressed in baculovirus assessed as substrate phosphorylation using fluorescence-labelled peptides as substrate at 2 uM after 90 mins by microfluidic peptide phosphorylation assay.
The target of test [7] is T2, cGMP-dependent protein kinase 1 (Homo sapiens) (UniProt Q13976).
T2 sequence (whole entry): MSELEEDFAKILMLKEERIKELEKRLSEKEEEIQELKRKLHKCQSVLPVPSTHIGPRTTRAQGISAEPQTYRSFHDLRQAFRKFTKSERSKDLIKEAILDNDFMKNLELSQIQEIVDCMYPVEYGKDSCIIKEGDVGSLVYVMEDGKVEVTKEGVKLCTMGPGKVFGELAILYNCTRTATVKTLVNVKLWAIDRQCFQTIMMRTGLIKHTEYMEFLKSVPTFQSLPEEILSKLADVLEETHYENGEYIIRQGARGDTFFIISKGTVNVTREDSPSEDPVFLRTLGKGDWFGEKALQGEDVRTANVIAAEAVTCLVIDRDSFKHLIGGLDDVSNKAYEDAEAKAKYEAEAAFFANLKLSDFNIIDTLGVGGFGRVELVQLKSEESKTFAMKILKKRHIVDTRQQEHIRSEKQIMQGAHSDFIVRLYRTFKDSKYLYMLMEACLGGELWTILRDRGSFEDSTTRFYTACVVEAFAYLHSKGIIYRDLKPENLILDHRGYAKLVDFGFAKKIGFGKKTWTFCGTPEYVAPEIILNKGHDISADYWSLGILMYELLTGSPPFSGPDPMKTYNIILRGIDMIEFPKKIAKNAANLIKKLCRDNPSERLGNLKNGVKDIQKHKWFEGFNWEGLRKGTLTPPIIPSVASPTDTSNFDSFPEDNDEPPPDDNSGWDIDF
The experiment in a line: Inhibition of human full length PKG-1a expressed in baculovirus assessed as substrate phosphorylation using fluorescence-labelled peptides as substrate at 1000 uM after 90 mins by microfluidic peptide phosphorylation assay.

Test [8] deals with T3, Protein kinase C epsilon type (Homo sapiens) (UniProt Q02156).
T3 sequence (whole entry): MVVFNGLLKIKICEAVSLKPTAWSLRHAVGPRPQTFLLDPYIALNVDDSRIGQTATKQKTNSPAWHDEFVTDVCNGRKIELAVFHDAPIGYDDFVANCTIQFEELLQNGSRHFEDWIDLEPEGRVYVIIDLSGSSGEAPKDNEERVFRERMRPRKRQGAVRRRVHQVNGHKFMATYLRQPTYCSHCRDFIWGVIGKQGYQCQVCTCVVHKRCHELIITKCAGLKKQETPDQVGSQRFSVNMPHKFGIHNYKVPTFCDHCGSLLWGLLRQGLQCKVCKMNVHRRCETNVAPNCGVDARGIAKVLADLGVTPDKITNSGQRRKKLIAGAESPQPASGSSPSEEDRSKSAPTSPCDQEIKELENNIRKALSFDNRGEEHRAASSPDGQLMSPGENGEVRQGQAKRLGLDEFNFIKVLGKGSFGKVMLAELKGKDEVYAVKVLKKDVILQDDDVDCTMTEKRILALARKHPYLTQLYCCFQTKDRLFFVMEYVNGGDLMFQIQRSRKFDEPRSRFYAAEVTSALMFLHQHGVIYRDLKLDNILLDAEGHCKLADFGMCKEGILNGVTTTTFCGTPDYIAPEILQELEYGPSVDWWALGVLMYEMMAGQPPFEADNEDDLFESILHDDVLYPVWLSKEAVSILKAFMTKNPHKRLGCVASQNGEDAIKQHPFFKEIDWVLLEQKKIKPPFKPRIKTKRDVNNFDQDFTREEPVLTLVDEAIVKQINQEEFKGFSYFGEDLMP
Put plainly: Inhibition of human truncated PKC epsilon expressed in baculovirus assessed as substrate phosphorylation using fluorescence-labelled peptides as substrate at […] after 90 mins by microfluidic peptide phosphorylation assay.

In general, inhibition refers to the percentage by which the read-out fell short of the control.

Sequence of Serine/threonine-protein kinase pim-1 (Homo sapiens) (P11309 whole entry, looked up): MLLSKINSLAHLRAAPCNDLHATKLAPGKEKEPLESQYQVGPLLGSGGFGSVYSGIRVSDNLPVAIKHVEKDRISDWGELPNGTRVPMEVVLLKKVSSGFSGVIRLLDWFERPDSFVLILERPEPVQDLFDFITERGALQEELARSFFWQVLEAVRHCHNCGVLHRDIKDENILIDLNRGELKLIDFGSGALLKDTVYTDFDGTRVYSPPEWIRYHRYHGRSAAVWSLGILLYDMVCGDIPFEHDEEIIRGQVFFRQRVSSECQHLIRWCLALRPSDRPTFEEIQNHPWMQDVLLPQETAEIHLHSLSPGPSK
Sequence of Tyrosine-protein kinase HCK (Homo sapiens) (P08631 2-526 limits assumed): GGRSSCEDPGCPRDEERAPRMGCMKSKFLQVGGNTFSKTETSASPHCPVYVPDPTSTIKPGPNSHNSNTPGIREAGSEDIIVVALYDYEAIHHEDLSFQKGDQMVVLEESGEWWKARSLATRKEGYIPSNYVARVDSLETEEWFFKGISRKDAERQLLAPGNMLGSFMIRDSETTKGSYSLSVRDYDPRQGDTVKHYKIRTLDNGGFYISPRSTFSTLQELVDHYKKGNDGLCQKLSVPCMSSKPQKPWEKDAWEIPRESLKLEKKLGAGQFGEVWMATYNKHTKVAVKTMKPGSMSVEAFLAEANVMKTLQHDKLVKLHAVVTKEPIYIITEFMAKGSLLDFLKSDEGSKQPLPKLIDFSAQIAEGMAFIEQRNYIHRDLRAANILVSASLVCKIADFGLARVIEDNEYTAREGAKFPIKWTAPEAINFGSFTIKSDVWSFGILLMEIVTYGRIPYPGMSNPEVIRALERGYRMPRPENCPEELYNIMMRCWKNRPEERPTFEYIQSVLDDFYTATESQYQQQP
Sequence of Serine/threonine-protein kinase MARK2 (Homo sapiens) (Q7KZI7 whole entry, the tested form may be a part): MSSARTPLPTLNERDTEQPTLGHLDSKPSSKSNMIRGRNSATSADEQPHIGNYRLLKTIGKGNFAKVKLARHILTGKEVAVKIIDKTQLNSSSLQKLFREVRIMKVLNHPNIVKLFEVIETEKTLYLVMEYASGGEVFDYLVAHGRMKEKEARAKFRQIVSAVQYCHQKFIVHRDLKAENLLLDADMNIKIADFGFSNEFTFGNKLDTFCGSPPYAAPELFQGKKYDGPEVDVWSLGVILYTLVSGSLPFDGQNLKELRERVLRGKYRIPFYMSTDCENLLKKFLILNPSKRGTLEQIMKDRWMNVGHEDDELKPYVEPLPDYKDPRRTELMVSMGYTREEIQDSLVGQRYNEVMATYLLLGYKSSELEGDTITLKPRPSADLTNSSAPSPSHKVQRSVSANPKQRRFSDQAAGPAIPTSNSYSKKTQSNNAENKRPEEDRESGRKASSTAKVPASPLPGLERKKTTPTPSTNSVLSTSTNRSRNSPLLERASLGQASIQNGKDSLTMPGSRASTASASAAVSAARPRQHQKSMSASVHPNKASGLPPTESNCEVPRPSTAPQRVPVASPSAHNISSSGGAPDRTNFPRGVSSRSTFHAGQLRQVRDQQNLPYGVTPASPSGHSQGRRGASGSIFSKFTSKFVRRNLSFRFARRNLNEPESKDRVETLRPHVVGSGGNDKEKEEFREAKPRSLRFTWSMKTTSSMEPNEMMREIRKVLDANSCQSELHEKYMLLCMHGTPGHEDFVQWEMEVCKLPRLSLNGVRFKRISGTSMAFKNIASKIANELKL
Sequence of Ribosomal protein S6 kinase alpha-5 (Homo sapiens) (O75582 whole entry, looked up): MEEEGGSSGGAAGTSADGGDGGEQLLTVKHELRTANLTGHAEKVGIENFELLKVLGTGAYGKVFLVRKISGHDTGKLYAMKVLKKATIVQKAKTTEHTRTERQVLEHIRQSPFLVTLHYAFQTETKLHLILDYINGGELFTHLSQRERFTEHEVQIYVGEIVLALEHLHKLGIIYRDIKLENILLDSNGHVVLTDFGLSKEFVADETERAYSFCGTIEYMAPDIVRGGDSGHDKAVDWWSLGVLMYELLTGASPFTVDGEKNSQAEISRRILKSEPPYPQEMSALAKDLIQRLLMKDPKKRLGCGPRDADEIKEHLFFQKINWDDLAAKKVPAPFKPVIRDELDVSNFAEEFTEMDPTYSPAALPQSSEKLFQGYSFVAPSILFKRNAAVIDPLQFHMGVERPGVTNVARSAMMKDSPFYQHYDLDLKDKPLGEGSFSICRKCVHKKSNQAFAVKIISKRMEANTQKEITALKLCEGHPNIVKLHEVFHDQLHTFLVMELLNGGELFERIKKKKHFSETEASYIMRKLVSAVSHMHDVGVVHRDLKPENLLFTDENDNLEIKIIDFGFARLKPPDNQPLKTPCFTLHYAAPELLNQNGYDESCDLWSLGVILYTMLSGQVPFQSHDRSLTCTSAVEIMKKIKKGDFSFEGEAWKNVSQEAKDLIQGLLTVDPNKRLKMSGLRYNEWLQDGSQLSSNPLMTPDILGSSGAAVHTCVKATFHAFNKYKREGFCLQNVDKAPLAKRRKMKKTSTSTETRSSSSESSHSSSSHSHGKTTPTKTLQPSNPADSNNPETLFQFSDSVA

As to `NCC1CCN(c2ncnc3[nH]ccc23)CC1`, the inhibition stood at 56.5% in test [1] and 83% in test [2]. With `C[C@H](CN(C)C)Oc1nc(Nc2cc3cccc(Cl)c3cn2)cnc1C#N`, in test [3], the inhibition was determined as 2%. As to `NCC1CN(c2ncnc3[nH]c4cnccc4c23)CCO1` (stereo not drawn), the inhibition in test [4] came out at 29%. For `CNCc1ccc(-c2ncnc3[nH]cnc23)cc1`, the inhibition in test [5] worked out at 72.5%. With `NC1CCN(c2ncnc3[nH]ccc23)CC1`, the inhibition in test [6] came out at 2%. In the case of `c1cnc2[nH]ccc2c1`, the inhibition in test [7] came to 90.5%. Turning to `COC(=O)c1cnc(Nc2cnc(C#N)cn2)cc1NCC1CCNCC1`, in test [8], the inhibition is 1%.

The values are drawn from ChEMBL document CHEMBL3132769, “Fragment growing to retain or alter the selectivity of anchored kinase hinge-binding fragments” (Medchemcomm, 2014).
